From ChEMBL document CHEMBL1949576, “Praziquantel derivatives exhibit activity against both juvenile and adult Schistosoma japonicum” (2012)

How the values were obtained:
Assay type in all cases: functional
Schistosoma japonicum [1] = experiment: Antischistosomal activity against adult Schistosoma japonicum infected in mouse assessed as total worm reduction at 200 mg/kg, po administered 21 days after infection relative to control; parameters: scale not given: the % may be the effect or the level left
Schistosoma japonicum [2] = experiment: Antischistosomal activity against juvenile Schistosoma japonicum assessed as worm survival at 15 uM after 48 hrs relative to control
Schistosoma japonicum [3] = experiment: Antischistosomal activity against adult Schistosoma japonicum assessed as worm survival at 50 uM after 24 hrs relative to control
Schistosoma japonicum [4] = experiment: Antischistosomal activity against adult Schistosoma japonicum assessed as worm survival at 50 uM after 72 hrs relative to control
Schistosoma japonicum [5] = experiment: Antischistosomal activity against juvenile Schistosoma japonicum assessed as worm survival at 15 uM after 24 hrs relative to control
Schistosoma japonicum [6] = experiment: Antischistosomal activity against juvenile Schistosoma japonicum assessed as worm survival at 25 uM after 24 hrs relative to control
Schistosoma japonicum [7] = experiment: Antischistosomal activity against juvenile Schistosoma japonicum assessed as worm survival at 25 uM after 48 hrs relative to control
Schistosoma japonicum [8] = experiment: Antischistosomal activity against adult Schistosoma japonicum assessed as worm survival at 10 uM after 48 hrs relative to control
Schistosoma japonicum [9] = experiment: Antischistosomal activity against juvenile Schistosoma japonicum assessed as worm survival at 25 uM after 72 hrs relative to control
Schistosoma japonicum [10] = experiment: Antischistosomal activity against juvenile Schistosoma japonicum assessed as worm survival at 15 uM after 72 hrs relative to control
Schistosoma japonicum [11] = experiment: Antischistosomal activity against adult Schistosoma japonicum assessed as worm survival at 5 uM after 48 hrs relative to control
Schistosoma japonicum [12] = experiment: Antischistosomal activity against adult Schistosoma japonicum assessed as worm survival at 25 uM after 48 hrs relative to control
Schistosoma japonicum [13] = experiment: Antischistosomal activity against adult Schistosoma japonicum assessed as worm survival at 25 uM after 72 hrs relative to control
Schistosoma japonicum [14] = experiment: Antischistosomal activity against juvenile Schistosoma japonicum assessed as worm survival at 50 uM after 24 hrs relative to control
Schistosoma japonicum [15] = experiment: Antischistosomal activity against adult Schistosoma japonicum assessed as worm survival at 10 uM after 72 hrs relative to control
Schistosoma japonicum [16] = experiment: Antischistosomal activity against adult Schistosoma japonicum assessed as worm survival at 5 uM after 72 hrs relative to control
Schistosoma japonicum [17] = experiment: Antischistosomal activity against juvenile Schistosoma japonicum assessed as worm survival at 50 uM after 48 hrs relative to control
Schistosoma japonicum [18] = experiment: Antischistosomal activity against adult Schistosoma japonicum assessed as worm survival at 5 uM after 24 hrs relative to control
Schistosoma japonicum [19] = experiment: Antischistosomal activity against adult Schistosoma japonicum assessed as worm survival at 25 uM after 24 hrs relative to control
Schistosoma japonicum [20] = experiment: Antischistosomal activity against juvenile Schistosoma japonicum assessed as worm survival at 50 uM after 72 hrs relative to control
Schistosoma japonicum [21] = experiment: Antischistosomal activity against adult Schistosoma japonicum assessed as worm survival at 50 uM after 48 hrs relative to control
Schistosoma japonicum [22] = experiment: Antischistosomal activity against juvenile Schistosoma japonicum infected in mouse assessed as total worm reduction at 200 mg/kg, po administered 14 days after infection relative to control; parameters: scale not given: the % may be the effect or the level left
Schistosoma japonicum [23] = experiment: Antischistosomal activity against adult Schistosoma japonicum assessed as worm survival at 10 uM after 24 hrs relative to control
Schistosoma japonicum [24] = experiment: Antischistosomal activity against adult Schistosoma japonicum assessed as worm survival at 80 uM after 24 hrs relative to control
Schistosoma japonicum [25] = experiment: Antischistosomal activity against adult Schistosoma japonicum assessed as worm survival at 100 uM after 72 hrs relative to control
Schistosoma japonicum [26] = experiment: Antischistosomal activity against adult Schistosoma japonicum assessed as worm survival at 80 uM after 48 hrs relative to control
Schistosoma japonicum [27] = experiment: Antischistosomal activity against adult Schistosoma japonicum assessed as worm survival at 100 uM after 48 hrs relative to control
Schistosoma japonicum [28] = experiment: Antischistosomal activity against adult Schistosoma japonicum assessed as worm survival at 80 uM after 72 hrs relative to control
Schistosoma japonicum [29] = experiment: Antischistosomal activity against adult Schistosoma japonicum assessed as worm survival at 100 uM after 24 hrs relative to control
Schistosoma japonicum [30] = experiment: Antischistosomal activity against juvenile Schistosoma japonicum assessed as worm survival at 100 uM after 48 hrs relative to control
Schistosoma japonicum [31] = experiment: Antischistosomal activity against juvenile Schistosoma japonicum assessed as worm survival at 100 uM after 72 hrs relative to control
Schistosoma japonicum [32] = experiment: Antischistosomal activity against juvenile Schistosoma japonicum assessed as worm survival at 100 uM after 24 hrs relative to control
Schistosoma japonicum [33] = experiment: Antischistosomal activity against adult Schistosoma japonicum assessed as worm survival at 15 uM after 48 hrs relative to control
Schistosoma japonicum [34] = experiment: Antischistosomal activity against adult Schistosoma japonicum assessed as worm survival at 20 uM after 72 hrs relative to control
Schistosoma japonicum [35] = experiment: Antischistosomal activity against adult Schistosoma japonicum assessed as worm survival at 15 uM after 72 hrs relative to control
Schistosoma japonicum [36] = experiment: Antischistosomal activity against adult Schistosoma japonicum assessed as worm survival at 20 uM after 48 hrs relative to control
Schistosoma japonicum [37] = experiment: Antischistosomal activity against adult Schistosoma japonicum assessed as worm survival at 20 uM after 24 hrs relative to control
Schistosoma japonicum [38] = experiment: Antischistosomal activity against adult Schistosoma japonicum assessed as worm survival at 15 uM after 24 hrs relative to control
Schistosoma japonicum [39] = experiment: Antischistosomal activity against juvenile Schistosoma japonicum assessed as worm survival at 20 uM after 24 hrs relative to control
Schistosoma japonicum [40] = experiment: Antischistosomal activity against juvenile Schistosoma japonicum assessed as worm survival at 10 uM after 72 hrs relative to control
Schistosoma japonicum [41] = experiment: Antischistosomal activity against juvenile Schistosoma japonicum assessed as worm survival at 20 uM after 72 hrs relative to control
Schistosoma japonicum [42] = experiment: Antischistosomal activity against juvenile Schistosoma japonicum assessed as worm survival at 10 uM after 24 hrs relative to control
Schistosoma japonicum [43] = experiment: Antischistosomal activity against juvenile Schistosoma japonicum assessed as worm survival at 10 uM after 48 hrs relative to control
Schistosoma japonicum [44] = experiment: Antischistosomal activity against juvenile Schistosoma japonicum assessed as worm survival at 20 uM after 48 hrs relative to control
Schistosoma japonicum [45] = experiment: Antischistosomal activity against juvenile Schistosoma japonicum assessed as worm survival at 5 uM after 72 hrs relative to control
Schistosoma japonicum [46] = experiment: Antischistosomal activity against juvenile Schistosoma japonicum assessed as worm survival at 5 uM after 24 hrs relative to control
Schistosoma japonicum [47] = experiment: Antischistosomal activity against juvenile Schistosoma japonicum assessed as worm survival at 5 uM after 48 hrs relative to control

Row | Structure (SMILES) | Activity (Schistosoma japonicum [1]) [%] | survival at 50 µM (Schistosoma japonicum [3]) [%] | survival at 50 µM (Schistosoma japonicum [4]) [%] | survival at 25 µM (Schistosoma japonicum [6]) [%] | survival at 25 µM (Schistosoma japonicum [7]) [%] | survival at 10 µM (Schistosoma japonicum [8]) [%] | survival at 25 µM (Schistosoma japonicum [9]) [%] | survival at 25 µM (Schistosoma japonicum [12]) [%] | survival at 25 µM (Schistosoma japonicum [13]) [%] | survival at 50 µM (Schistosoma japonicum [14]) [%] | survival at 10 µM (Schistosoma japonicum [15]) [%] | survival at 50 µM (Schistosoma japonicum [17]) [%] | survival at 25 µM (Schistosoma japonicum [19]) [%] | survival at 50 µM (Schistosoma japonicum [20]) [%] | survival at 50 µM (Schistosoma japonicum [21]) [%] | Activity (Schistosoma japonicum [22]) [%] | survival at 10 µM (Schistosoma japonicum [23]) [%] | survival at 80 µM (Schistosoma japonicum [24]) [%] | survival at 100 µM (Schistosoma japonicum [25]) [%] | survival at 80 µM (Schistosoma japonicum [26]) [%] | further results
1 | C[C@H]1[C@@H](CC(=O)Oc2ccc3c(c2)C2CN(C(=O)C4CCCCC4)CC(=O)N2CC3)O[C@@H]2O[C@@]3(C)CC[C@H]4[C@H](C)CC[C@@H]1[C@@]24OO3 (stereo partly specified) | 49.6 | 0 | 0 | 28.6 | 25 | 80 | 0 | 40 | 0 | 14.3 | 0 | 0 | 0 | 0 | 0 | 20.5 | 100 | – | – | – | survival at 15 µM (Schistosoma japonicum [2]): 28.6%; survival at 15 µM (Schistosoma japonicum [5]): 28.6%; survival at 15 µM (Schistosoma japonicum [10]): 28.6%; survival at 5 µM (Schistosoma japonicum [11]): 40%; survival at 5 µM (Schistosoma japonicum [16]): 20%; survival at 5 µM (Schistosoma japonicum [18]): 0%
2 | O=C(Oc1ccc2c(c1)C1CN(C(=O)C3CCCCC3)CC(=O)N1CC2)C1CCC2(CC1)OOC1(CCCCC1)OO2 (stereo unspecified) | – | 40 | 80 | – | – | – | – | – | – | 0 | – | 14.3 | – | 14.3 | 80 | – | – | 80 | 0 | 80 | survival at 100 µM (Schistosoma japonicum [27]): 20%; survival at 80 µM (Schistosoma japonicum [28]): 40%; survival at 100 µM (Schistosoma japonicum [29]): 80%
3 | O=C(C1CCCCC1)N1CC(=O)N2CCc3ccccc3C2C1 (stereo unspecified) [PRAZIQUANTEL] | 66.7 | 62.9 | 36.3 | – | – | – | – | – | – | – | – | – | – | – | 44.4 | 19.8 | – | 28.8 | 1.4 | 19.1 | survival at 100 µM (Schistosoma japonicum [30]): 100%; survival at 100 µM (Schistosoma japonicum [31]): 100%; survival at 100 µM (Schistosoma japonicum [27]): 4.4%; survival at 80 µM (Schistosoma japonicum [28]): 10%; survival at 100 µM (Schistosoma japonicum [32]): 100%; survival at 100 µM (Schistosoma japonicum [29]): 10%
4 | O=C(Nc1ccc2c(c1)C1CN(C(=O)C3CCCCC3)CC(=O)N1CC2)C1CCC2(CC1)OOC1(CCCCC1)OO2 (stereo unspecified) | 38.7 | 0 | 0 | 37.5 | 33.3 | – | 12.5 | 0 | 40 | 33.3 | – | 0 | 60 | 0 | 0 | 25.1 | – | – | – | – | survival at 15 µM (Schistosoma japonicum [33]): 100%; survival at 20 µM (Schistosoma japonicum [34]): 100%; survival at 15 µM (Schistosoma japonicum [35]): 100%; survival at 20 µM (Schistosoma japonicum [36]): 100%; survival at 20 µM (Schistosoma japonicum [37]): 100%; survival at 15 µM (Schistosoma japonicum [38]): 100%
5 | C[C@H]1[C@@H](OC(=O)CCC(=O)Nc2ccc3c(c2)C2CN(C(=O)C4CCCCC4)CC(=O)N2CC3)O[C@@H]2O[C@@]3(C)CC[C@H]4[C@H](C)CC[C@@H]1[C@@]24OO3 (stereo partly specified) | 41.8 | 0 | 0 | 0 | 0 | 100 | 0 | 0 | 0 | 0 | 100 | 0 | 0 | 0 | 0 | 3.8 | 100 | – | – | – | survival at 15 µM (Schistosoma japonicum [33]): 60%; survival at 20 µM (Schistosoma japonicum [39]): 11.1%; survival at 10 µM (Schistosoma japonicum [40]): 54.5%; survival at 20 µM (Schistosoma japonicum [41]): 0%; survival at 10 µM (Schistosoma japonicum [42]): 9.1%; survival at 10 µM (Schistosoma japonicum [43]): 45.5%; survival at 20 µM (Schistosoma japonicum [44]): 0%; survival at 5 µM (Schistosoma japonicum [45]): 9.1%; survival at 5 µM (Schistosoma japonicum [46]): 9.1%; survival at 20 µM (Schistosoma japonicum [34]): 0%; survival at 5 µM (Schistosoma japonicum [47]): 9.1%; survival at 15 µM (Schistosoma japonicum [35]): 40%; survival at 20 µM (Schistosoma japonicum [36]): 0%; survival at 20 µM (Schistosoma japonicum [37]): 0%; survival at 15 µM (Schistosoma japonicum [38]): 0%
